According to US7285547B2, “Amidinophenylalanine derivatives as thrombin inhibitors” (LEK Pharmaceuticals d.d., priority 2000, dated 2007):

Legend:
[1] = target: T1, trypsin (UniProt P00760); experiment: Determination of trypsin Ki (chromogenic substrate S-2222); assay type: biochemical; details: S-2222, 25° C.
T1 construct: Trypsin (6000 E/mg prot; Sigma): dissolved in distilled water to give a stock solution of 300 E/mL
T1 sequence (P00760 1-246): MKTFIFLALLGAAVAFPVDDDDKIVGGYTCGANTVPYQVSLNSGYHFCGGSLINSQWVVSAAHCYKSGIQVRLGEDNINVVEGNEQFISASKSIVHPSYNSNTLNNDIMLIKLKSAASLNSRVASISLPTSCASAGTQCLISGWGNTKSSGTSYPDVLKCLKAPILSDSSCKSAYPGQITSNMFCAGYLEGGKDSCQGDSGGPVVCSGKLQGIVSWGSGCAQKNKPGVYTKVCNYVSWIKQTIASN
Protocol: (§1) The enzyme inhibitory effect of the compounds can be identified by determination of inhibition constant Ki. It denotes the degree of dissociation of the enzyme-inhibitor complex. Low dissociation constant means high potency of inhibitor. Ki can be determined during reaction of the enzyme with a specific chromogenic substrate which under hydrolysis by the enzyme develops color. Reaction in time is recorded by spectrophotometry and Ki is calculated from kinetic parameters (Vmax, Km, reaction rate).
2. Determination of Trypsin Ki
The ability of a compound to act as an inhibitor of trypsin catalytic activity was assessed by determination of Ki.
50 μL of buffer, 50 μL of test compound in water (final concentrations from 50 to 300 μM) and 50 μL of trypsin (3 mE/mL f.c.) were incubated for 15 minutes at room temperature.
(§2) Trypsin activity was determined from the change in absorbance in the linear part of velocity graph. […] The Km for the substrate was determined under test conditions with at least 6 substrate concentrations varying around Km and calculated with the non-linear regression program Curve expert.

[2] = target: T2, human thrombin (Homo sapiens, UniProt P00734); experiment: Determination of thrombin Ki (chromogenic substrate S-2238); assay type: biochemical
T2 construct: Human thrombin (308 NIH; Sigma); purchased Sigma
Protocol: as §1
1. Determination of Thrombin Ki
The ability of a compound to act as an inhibitor of human thrombin catalytic activity was assessed by determination of Ki.
A mixture of 50 μL of buffer, 50 μL of inhibitor in water (final concentrations from 10 to 100 μM) and 50 μL of thrombin (0.5 NIH U/mL f.c.) was incubated for 15 minutes at room temperature.
as §2, with “Thrombin” for “Trypsin”, “of the” for “of”, “under the” for “under”, “programme” for “program”

[3] = target: trypsin / thrombin; experiment: Selectivity to thrombin (ratio of Ki for trypsin to Ki for thrombin); assay type: biochemical
Protocol: 3. Selectivity to Thrombin
By the use of other serine protease like trypsin with the appropriate chromogenic substrate, selectivity of inhibitors with respect to thrombin was determined. Selectivity of an inhibitor is expressed as a ratio of Ki for trypsin to Ki for thrombin.

[4] = system: normal pooled human plasma; experiment: Prothrombin time (PT) coagulation assay; assay type: biochemical; details: concentration of inhibitor that doubled the clotting time
Protocol: (§3) The Anticoagulant effect of thrombin inhibitors was measured by thrombin time (TT), activated partial thromboplastin time (aPTT), and prothrombin time (PT) assays. Inhibitors were added to normal pooled human plasma over a range of concentrations and clotting was recorded in an automated coagulometer (Fibrintimer, Dade/Behring). The concentration of inhibitor that doubled the clotting time was determined for each assay.
An optimal amount of thromboplastin and calcium are added to plasma sample and the time of fibrin clot formation wass measured. PT is a rapid, sensitive screening test for coagulation disorders of the extrinsic pathway. It is well suited for the induction and monitoring of oral anticoagulant therapy, for diagnosing genetic or acquired deficiencies in coagulation factors and checking the synthesis performance of the liver in hepatic diseases. PT is prolonged due to extrinsic coagulation factors deficit or due to the presence of inhibitors.
b) Reagents • Thromboplastin (Thromborel S, Dade/Behring): was dissolved in 4 mL of distilled water. […]
Inhibitor (10 μL working solution, concentrations from 5 μM to 100 μM) and pooled plasma (90 μL) were incubated at 37° C. for 5 minutes and then Thromborel S (200 μL) was added. Clot formation was measured with a coagulometer in duplicate.

[5] = system: normal pooled human plasma; experiment: Activated partial thromboplastin time (aPTT) coagulation assay; assay type: biochemical; details: concentration of inhibitor that doubled the clotting time
Protocol: as §3
2. Activated Partial Thromboplastin Time (aPTT)
Incubation of plasma with the optimal quantity of phospholipids and a surface activator leads to activation of factors of the intrinsic coagulation pathway. The addition of calcium ions triggers the coagulation process. The time of fibrin clot formation wass measured. aPTT was used as a screening test for coagulation disorders of the intrinsic coagulation pathway. It is prolonged due to intrinsic coagulation factors deficit or due to the presence of inhibitors.
b) Reagents • Pathromtin SL (Dade/Behring): silicon dioxide particles, vegetable phospholipids, sodium chloride (2.4 g/L), Hepes (14.3 g/L, pH 7.6), sodium azide (<1 g/L). […]
Inhibitor (10 μL working solution, concentrations from 5 μM to 100 μM) and pooled plasma (90 μL) were incubated at 37° C. for 5 minutes. […] The addition of calcium chloride (100 μL) triggered the coagulation process and clot formation was detected with a coagulometer in duplicate.

[6] = system: normal pooled human plasma; experiment: Thrombin time (TT) coagulation assay; assay type: biochemical; details: concentration of inhibitor that doubled the clotting time
Protocol: as §3
In a plasma sample thrombin converts fibrinogen into fibrin and the clot is formed. The time for clot formation was measured. Thrombin time is prolonged due to disorders in fibrin polymerisation or due to the presence of thrombin inhibitors.
b) Reagents • Thrombin (Test Thrombin Reagent, 1.5 IU/mL, Dade/Behring): lyophilized bovine thrombin was dissolved in 5 mL of HEPES (25 mmol/L, pH 7.4). The reagent was warmed to 37° C. prior to the assay. • Normal pooled plasma: venous blood from 11 apparently healthy volunteers was collected (1 part 0.11 mol/L sodium citrate solution with 9 parts of blood) and centrifuged immediately at 2000×g for 30 minutes at 4° C. […]
Inhibitors (10 μL working solution, concentrations from 2.5 μM to 100 μM) and pooled plasma (90 μL) were incubated at 37° C. for 5 minutes and then thrombin (200 μL) was added. Clot formation was measured in a coagulometer in duplicate.

[7] = system: transection of the tail of rats; experiment: Bleeding time (transection of the tail); assay type: in vivo; details: rat tail transection, 1 mg/kg i.v. 5 min before transection
Protocol: The hemorrhagic risk associated to a treatment with selected compounds were determined using an experimental model of bleeding: transection of the tail of rats.
Bleeding time was determined by transection of the tail, 2 mm from the tip, of […] rats (30 mg/kg i.p.). The compounds were injected i.v. at the indicated doses 5 min before tail transection. Blood was carefully blotted every 15 s on a filter paper. Haemostasis was considered to be achieved when no more blood stain was observed over 1 min.

[8] = system: thrombus formation in a venous thrombosis model in the rat; experiment: Stasis-induced thrombosis (venous thrombosis model); assay type: in vivo; details: iv, i.v. 5 min before thrombosis induction, tissue factor plus stasis, read-out: Stasis-induced thrombosis (ED50 ± SD)
Protocol: 1. Stasis-Induced Thrombosis
Using a combination of thrombogenic challenge (0.045 ng/kg of tissue factor) and stasis, compounds were tested for their abillity to affect thrombus formation in a venous thrombosis model in the rat.
Thrombus formation by a combination of stasis and hypercoagulability was induced as described by Vogel et al. (Thromb. Res., 1989, 54, 399410). Male sprague-Dawley rats (250-300 g) were anaesthetized with sodium pentobarbitone (30 mg/kg, i.p.). The abdomen of the animals was surgically opened and after careful dissection, the vena cava was exposed and dissected free from surrounding tissue. Saline, or the various compounds were administered i.v. 5 min before thrombosis induction. […] Human tissue factor (0.045 ng/kg, i.v.) was injected into the dorsal vein of the penis. Ten seconds after the end of the injection, stasis were established by tightening the […] the proximal and then the distal. The abdominal cavity was provisionally closed and stasis was maintained for 20 minutes. The cavity was then reopened, the ligated segment was opened longitudinally and the thrombus formed was removed, rinsed, blotted on filter paper, dried overnight at 60° C. and weighed. Under these experimental conditions, control thrombus weight was 5.5±0.1 mg (n=15).

[9] = text comparison of SI 20025 compound with compound of the present invention

| Compound | melting point [°C] | Ki [1] [nM] | Ki ([2]; human thrombin, S-2238, 25° C.) [nM] | other results |
| --- | --- | --- | --- | --- |
| COc1ccc2cc(S(=O)(=O)NN(Cc3cccc(C(=N)N)c3)C(=O)N3CCC(C)CC3)ccc2c1.Cl | 151 to 154 | – | – | – |
| Cl.N=C(N)c1cccc(CN(NS(=O)(=O)c2ccc3ccccc3c2)C(=O)N2CCCCCC2)c1 | 151 to 154 | – | – | – |
| COc1ccc2cc(S(=O)(=O)NN(Cc3cccc(C(=N)N)c3)C(=O)N3CCCCCC3)ccc2c1.Cl | 151 to 154 | – | – | – |
| CC1CCN(C(=O)N(Cc2cccc(C(=N)NO)c2)NS(=O)(=O)c2ccc3ccccc3c2)CC1 | – | > 68300 | 469 | Ki trypsin/Ki thrombin [3]: 146 |
| CC1CCN(C(=O)N(Cc2cccc(C(=N)N)c2)NS(=O)(=O)c2ccc3ccccc3c2)CC1 | – | 112 | 4 | – |
| COc1ccc2cc(S(=O)(=O)NN(Cc3cccc(C(=N)N)c3)C(=O)N3CCC(C)CC3)ccc2c1 | – | – | 11 | PT [4]: 2.7 µM; aPTT [5]: 2.1 µM; TT [6]: 2.0 µM |
| COc1ccc2cc(S(=O)(=O)NN(Cc3cccc(C(=N)NO)c3)C(=O)N3CCCCCC3)ccc2c1 | – | 17900 | – | Ki trypsin/Ki thrombin [3]: 29 |
| COc1ccc2cc(S(=O)(=O)NN(Cc3cccc(C(=N)N)c3)C(=O)N3CCCCCC3)ccc2c1 | – | 53 | 9 | Ki trypsin/Ki thrombin [3]: 5.84 |
| CC1CCCCN1C(=O)N(Cc1cccc(/C(N)=N/O)c1)NS(=O)(=O)c1ccc2ccccc2c1 (stereo not shown) [Example 13, N′-hydroxy-3-{[1-[(2-methyl-1-piperidinyl)carbonyl]-2-(2-naphthylsulfonyl)hydrazino]methyl}benzenecarboximidamide] | 101 to 103 | – | – | – |
| COc1ccc2cc(S(=O)(=O)NN(Cc3cccc(/C(N)=N/O)c3)C(=O)N3CCCCC3C)ccc2c1 (stereo not shown) [Example 15, N′-Hydroxy-3-({2-[(6-methoxy-2-naphthyl)sulfonyl]-1-[(2-methyl-1-piperidinyl)carbonyl]hydrazino}methyl)benzenecarboximidamide] | 172 to 175 | – | – | – |
| COc1ccc2cc(S(=O)(=O)NN(Cc3cccc(/C(N)=N/O)c3)C(=O)N3CCC(C)CC3)ccc2c1 [Example 17, N′-Hydroxy-3-({2-[(6-methoxy-2-naphthyl)sulfonyl]-1-[(4-methyl-1-piperidinyl)carbonyl]hydrazino}methyl)benzenecarboximidamide] | 154 to 156 | – | – | – |
| COc1ccc2cc(S(=O)(=O)NN(Cc3cccc(/C(N)=N/O)c3)C(=O)N3CCCCCC3)ccc2c1 [Example 23, 3-({1-(1-Azepanylcarbonyl)-2-[(6-methoxy-2-naphthyl)sulfonyl]hydrazino}methyl)-N′-hydroxybenzenecarboximidamide] | 173 to 175 | – | – | – |
| N=C(N)c1ccc(CN(NS(=O)(=O)c2ccc3ccccc3c2)C(=O)N2CCCCCC2)cc1 [compound a, reference compound] | – | – | – | Ki [2, 9]: 32 nM |
| N=C(N)Cc1ccc(CN(NS(=O)(=O)c2ccc3ccccc3c2)C(=O)N2CCCCCC2)cc1 [compound b] | – | – | – | Ki [2, 9]: 5 nM |
| N/C(=N\O)c1cccc(CN(NS(=O)(=O)c2ccc3ccccc3c2)C(=O)N2CCCCCC2)c1 [drawing 45] | – | 32200 | 594 | Ki trypsin/Ki thrombin [3]: 54 |
| N=C(N)c1cccc(CN(NS(=O)(=O)c2ccc3ccccc3c2)C(=O)N2CCCCCC2)c1 [drawing 46] | – | 143 | 5 | – |
| N/C(=N\O)c1cccc(CN(NS(=O)(=O)c2ccc3ccccc3c2)C(=O)N2CCCCCC2)c1 [drawing 49] | – | – | – | Bleeding (fold increase at 1 mg/kg) [7]: 3.3 fold increase; ED50 [8]: 0.29 ± 0.011 mg/kg |
| N=C(N)c1cccc(CN(NS(=O)(=O)c2ccc3ccccc3c2)C(=O)N2CCCCCC2)c1 [drawing 50] | – | – | – | ED50 [8]: 0.07 ± 0.005 mg/kg |
